From patent publication US20240148740A1, “COMBINATION OF AN AHR INHIBITOR WITH A PDX INHIBITOR OR DOXORUBICINE” (Ikena Oncology, Inc., priority 2020, published 2024)
Entries after “also recorded” stand apart in the source; their conditions may differ. Read-outs that look alike come from different tables or passages of the source.

Columns and labels:
[1] = biological target: T1, AHR (Homo sapiens, UniProt P35869); test: Selectivity for AHR over other receptors, transporters, and kinases
T1 sequence (P35869 11-848): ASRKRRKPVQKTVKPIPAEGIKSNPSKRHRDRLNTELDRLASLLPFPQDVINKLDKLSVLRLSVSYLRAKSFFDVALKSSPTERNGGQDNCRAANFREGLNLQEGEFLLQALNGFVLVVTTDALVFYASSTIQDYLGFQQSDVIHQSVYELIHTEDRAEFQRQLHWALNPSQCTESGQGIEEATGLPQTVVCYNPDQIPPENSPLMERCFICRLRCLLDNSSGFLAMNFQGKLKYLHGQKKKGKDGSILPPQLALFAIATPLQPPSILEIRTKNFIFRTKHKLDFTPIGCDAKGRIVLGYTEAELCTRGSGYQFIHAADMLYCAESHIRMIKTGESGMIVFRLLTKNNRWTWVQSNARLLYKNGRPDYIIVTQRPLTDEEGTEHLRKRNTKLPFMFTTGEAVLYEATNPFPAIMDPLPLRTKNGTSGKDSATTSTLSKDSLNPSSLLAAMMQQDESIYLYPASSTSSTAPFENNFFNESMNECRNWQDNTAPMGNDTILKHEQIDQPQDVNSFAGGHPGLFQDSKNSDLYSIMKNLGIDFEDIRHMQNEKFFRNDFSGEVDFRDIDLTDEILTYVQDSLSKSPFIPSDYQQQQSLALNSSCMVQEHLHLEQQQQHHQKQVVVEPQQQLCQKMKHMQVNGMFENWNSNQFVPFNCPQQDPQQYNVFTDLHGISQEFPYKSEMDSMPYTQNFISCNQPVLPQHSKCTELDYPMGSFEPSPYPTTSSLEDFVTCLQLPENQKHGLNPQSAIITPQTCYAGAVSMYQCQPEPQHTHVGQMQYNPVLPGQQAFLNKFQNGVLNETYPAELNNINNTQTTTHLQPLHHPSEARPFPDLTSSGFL

[2] = system: human T cells; test: Human T cell assays (summary); assay type: cell-based
Protocol: AHR plays a key role in immune cells and its' inhibition is proposed to reverse immune suppression and activate T cells. The ability of Compound A to inhibit AHR-dependent CYP1A1 expression and cytokine production was assessed in primary human T cells. AHR directly regulates the expression of the immune suppressive cytokine IL-22. Human T cells isolated from healthy donor PBMCs were activated with CD3/CD28 tetramer and incubated for 24 hours with Compound A. Cell pellets were processed for RNA isolation and CYP1A1 analysis by quantitative reverse-transcriptase polymerase chain reaction. For the cytokine analysis assay, CD3/CD28 activated T cells were treated with Compound A, and culture supernatants were collected after 48 hours for analysis of IL-22 levels using Meso Scale Discovery V-plex IL-22 plates. Compound A inhibited AHR-dependent gene expression in activated human T cells by decreasing expression of CYP1A1 in a concentration--dependent manner.

[3] = biological target: AHR (Macaca fascicularis, UniProt A0A7N9CQA9); test: AHR-dependent gene expression in cynomolgus PBMCs (Quantigene Plex); assay type: cell-based, cynomolgus macaque; details: cynomolgus PBMCs ex vivo
Sequence of AHR (Macaca fascicularis, UniProt A0A7N9CQA9) (A0A7N9CQA9 entry or part of it): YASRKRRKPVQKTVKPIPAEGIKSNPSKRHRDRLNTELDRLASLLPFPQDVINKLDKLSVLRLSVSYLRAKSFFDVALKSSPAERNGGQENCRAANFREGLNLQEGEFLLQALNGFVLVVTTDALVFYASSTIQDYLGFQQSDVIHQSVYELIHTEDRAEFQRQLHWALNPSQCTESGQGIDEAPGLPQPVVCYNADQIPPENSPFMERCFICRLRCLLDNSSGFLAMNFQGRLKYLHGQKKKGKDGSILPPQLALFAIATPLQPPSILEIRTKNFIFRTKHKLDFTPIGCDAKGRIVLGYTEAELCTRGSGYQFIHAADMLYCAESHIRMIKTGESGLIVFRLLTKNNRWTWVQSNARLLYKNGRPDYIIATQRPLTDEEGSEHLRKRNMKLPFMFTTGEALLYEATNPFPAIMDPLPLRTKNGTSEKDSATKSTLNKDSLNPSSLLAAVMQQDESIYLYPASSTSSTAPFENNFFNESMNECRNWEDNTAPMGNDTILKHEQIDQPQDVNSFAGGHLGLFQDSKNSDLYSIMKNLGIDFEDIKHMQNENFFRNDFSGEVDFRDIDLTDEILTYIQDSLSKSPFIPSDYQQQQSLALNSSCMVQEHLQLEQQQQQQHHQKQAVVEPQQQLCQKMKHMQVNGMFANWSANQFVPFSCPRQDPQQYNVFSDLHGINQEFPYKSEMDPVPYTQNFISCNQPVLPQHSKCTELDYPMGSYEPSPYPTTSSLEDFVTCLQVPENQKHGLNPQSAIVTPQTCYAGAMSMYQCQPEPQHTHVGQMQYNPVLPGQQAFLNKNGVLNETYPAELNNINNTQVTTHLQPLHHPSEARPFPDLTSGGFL
Protocol: The effect of Compound A on AHR-dependent gene expression was assessed in peripheral blood mononuclear cells (PBMCs) of cynomolgus macaque monkeys to assess activity in the non-rodent tox species. Cynomolgus PBMCs were treated ex vivo with Compound A and gene expression of AHR-dependent genes CYP1B1 and AHR was quantified using Quantigene Plex (QGP) custom panels.

[4] = biological target: T2, AHR (Mus musculus, UniProt P30561); test: Pharmacodynamics: CYP1A1 mRNA in murine liver and spleen after VAG539; assay type: in vivo
T2 sequence (P30561 10-805): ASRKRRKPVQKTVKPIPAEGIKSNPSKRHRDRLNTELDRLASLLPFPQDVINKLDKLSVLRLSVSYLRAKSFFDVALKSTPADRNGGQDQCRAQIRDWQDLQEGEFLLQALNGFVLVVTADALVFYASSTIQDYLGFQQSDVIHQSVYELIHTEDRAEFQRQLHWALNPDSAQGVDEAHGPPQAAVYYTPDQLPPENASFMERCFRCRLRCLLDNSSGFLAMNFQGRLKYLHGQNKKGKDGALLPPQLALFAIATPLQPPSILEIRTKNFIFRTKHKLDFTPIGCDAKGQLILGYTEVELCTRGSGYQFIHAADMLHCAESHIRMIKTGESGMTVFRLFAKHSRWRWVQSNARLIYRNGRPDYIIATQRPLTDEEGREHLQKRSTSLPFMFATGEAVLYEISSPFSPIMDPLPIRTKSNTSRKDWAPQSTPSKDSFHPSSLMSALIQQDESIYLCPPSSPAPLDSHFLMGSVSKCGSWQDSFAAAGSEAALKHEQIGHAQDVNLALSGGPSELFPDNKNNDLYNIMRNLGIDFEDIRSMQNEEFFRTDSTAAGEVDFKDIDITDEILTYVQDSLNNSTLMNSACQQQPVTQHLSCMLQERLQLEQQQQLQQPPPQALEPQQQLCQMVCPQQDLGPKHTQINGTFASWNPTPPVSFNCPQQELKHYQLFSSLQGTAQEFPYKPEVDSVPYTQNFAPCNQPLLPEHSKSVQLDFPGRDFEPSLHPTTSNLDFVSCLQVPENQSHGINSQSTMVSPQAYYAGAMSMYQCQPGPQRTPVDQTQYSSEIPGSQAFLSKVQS

[5] = Levels of doxorubicin in plasma (UPLC); assay type: in vivo, mouse; details: day 28 after cell inoculation; FIG. 7
Protocol: To analyze the levels of doxorubicin in plasma, blood was collected using retro-orbital vein bleeding. Plasma was generated after centrifuging blood in dipotassium EDTA tubes for 10 min at 4° C. Plasma was transferred in new tubes and stored at −80° C.
Doxorubicin levels in plasma were analyzed by UPLC.
To determine whether Compound A treatment had any effects on doxorubicin metabolism, the levels of doxorubicin in plasma were analyzed on day 28 after cell inoculation.

[6] = Nonclinical safety: single-dose and repeated-dose toxicological studies; assay type: in vivo, rodent and non-rodent species; details: species not specified
[7] = Nonclinical safety studies in rat (incl. 28-day GLP); assay type: in vivo

selectivity for AHR over other receptors, transporters, and kinases [1]: highly selective | IC50 ([3]; read-out: IC50, inhibition of AHR target gene AHR): 30 nM | IC50 ([3]; read-out: IC50, inhibition of AHR target gene Cyp1B1): 6 nM | inhibition of CYP1A1 mRNA induction, spleen ([4]; 25 mg/kg Compound A oral with VAG539, at 4 hours): complete inhibition | inhibition of CYP1A1 mRNA increases induced by VAG539, liver ([4]; 25 mg/kg Compound A oral, coadministered with 30 mg/kg VAG539): Complete inhibition
Compound: CC(C)c1cnn2c(N[C@@H]3CCc4[nH]c5ccccc5c4C3)nc(-c3cncc(F)c3)nc12 [Compound A, (R)—N-(2-(5-fluoropyridin-3-yl)-8-isopropylpyrazolo[1,5-a][1,3,5]triazin-4-yl)-2,3,4,9-tetrahydro-1H-carbazol-3-amine]
T cell state [2]: induces an activated T cell state | pro-inflammatory cytokines, such as IL-2 and IL-9 [2]: increase | effect of Compound A treatment on doxorubicin drug levels in plasma / metabolism of Doxil [5]: does not affect; also recorded: did not have any effect | noteworthy findings [6]: emesis, loose stool, dehydration, body weight loss | noteworthy findings (rats) [7]: non-glandular stomach ulceration and edema; also recorded: seminiferous tubule degeneration and debris in the epididymis lumen
